Columns and labels:
Experiment in all cases: Test F preemergence/postemergence greenhouse plant response rating 0 to 100
downy brome = assay type: in vivo, Bromus tectorum; details: 0 to 100 scale
Excerpt: (§1) Compounds evaluated in this test were formulated in a non-phytoxic solvent and applied to the soil surface before plant seedlings emerged (preemergence application) and to plants that were in the one-to-four leaf stage (postemergence application). A sandy loam soil was used for the preemergence test while a mixture of sandy loam soil and greenhouse potting mix in a 60:40 ratio was used for the postemergence test. Test compounds were applied within approximately one day after planting seeds for the preemergence test. Plantings of these crops and weed species were adjusted to produce plants of appropriate size for the postemergence test. All plant species were grown using normal greenhouse practices. Crop and weed species include winter barley (Hordeum vulgare cv. ‘Igri’), blackgrass (Alopecurus myosuroides), chickweed (Stellaria media), downy brome (Bromus tectorum), field violet (Viola arvensis), galium (Galium aparine), green foxtail (Setaria viridis), kochia (Kochia scoparia), lambsquarters (Chenopodium album), speedwell (Veronica persica), rape (Brassica napus), ryegrass (Lolium multiflorum), sugar beet (Beta vulgaris cv. ‘USl’), sunflower (Helianthus annuus cv. ‘Russian Giant’), spring wheat (Triticum aestivum cv. ‘ERA’), winter wheat (Triticum aestivum cv. ‘Talent’), wild buckwheat (Polygonum convolvulus), wild mustard (Sinapis arvensis), wild oat (Avena fatua), and wild radish (Raphanus raphanistrum). Blackgrass, galium and wild oat were treated at two growth stages. […] Treated plants and untreated controls were maintained in a greenhouse for approximately 21 to 28 days, after which all treated plants were compared to untreated controls and visually evaluated. […] A dash response (-) means no test result.

ryegrass = assay type: in vivo, Lolium multiflorum; details: 0 to 100 scale
Excerpt: as §1

winter wheat = assay type: in vivo, Triticum aestivum cv. ‘Talent’; details: 0 to 100 scale
Excerpt: as §1

speedwell = assay type: in vivo, Veronica persica; details: 0 to 100 scale
Excerpt: as §1

galium = assay type: in vivo, Galium aparine; details: 0 to 100 scale
Excerpt: as §1

green foxtail = assay type: in vivo, Setaria viridis; details: 0 to 100 scale
Excerpt: as §1

blackgrass = assay type: in vivo, Alopecurus myosuroides; details: POSTEMERGENCE, 0 to 100 scale; for Blackgrass (1) plant response rating: stage (1) two to three leaves; for Blackgrass (2) plant response rating: stage (2) approximately four leaves or initial tillering
Excerpt: as §1

C#CCOc1cc(-c2nn3c(c2Br)CCCC3)c(F)cc1Cl [Compound 26]
Downy brome plant response rating (downy brome; POSTEMERGENCE, Rate 4 g/ha): 0
Downy brome plant response rating (downy brome; POSTEMERGENCE, Rate 8 g/ha): 0
Downy brome plant response rating (downy brome; POSTEMERGENCE, Rate 16 g/ha): 0
Downy brome plant response rating (downy brome; POSTEMERGENCE, Rate 32 g/ha): 0
Downy brome plant response rating (downy brome; POSTEMERGENCE, Rate 64 g/ha): 30
Downy brome plant response rating (downy brome; POSTEMERGENCE, Rate 125 g/ha): 50
Downy brome plant response rating (downy brome; POSTEMERGENCE, Rate 250 g/ha): 10
Downy brome plant response rating (downy brome; PREEMERGENCE, Rate 4 g/ha): 0
Downy brome plant response rating (downy brome; PREEMERGENCE, Rate 8 g/ha): 0
Downy brome plant response rating (downy brome; PREEMERGENCE, Rate 16 g/ha): 0
Downy brome plant response rating (downy brome; PREEMERGENCE, Rate 32 g/ha): 0
Downy brome plant response rating (downy brome; PREEMERGENCE, Rate 64 g/ha): 0
Downy brome plant response rating (downy brome; PREEMERGENCE, Rate 125 g/ha): 30
Downy brome plant response rating (downy brome; PREEMERGENCE, Rate 250 g/ha): 40
Ryegrass plant response rating (ryegrass; POSTEMERGENCE, Rate 4 g/ha): 0
Ryegrass plant response rating (ryegrass; POSTEMERGENCE, Rate 8 g/ha): 0
Ryegrass plant response rating (ryegrass; POSTEMERGENCE, Rate 16 g/ha): 0
Ryegrass plant response rating (ryegrass; POSTEMERGENCE, Rate 32 g/ha): 5
Ryegrass plant response rating (ryegrass; POSTEMERGENCE, Rate 64 g/ha): 20
Ryegrass plant response rating (ryegrass; POSTEMERGENCE, Rate 125 g/ha): 30
Ryegrass plant response rating (ryegrass; POSTEMERGENCE, Rate 250 g/ha): 55
Ryegrass plant response rating (ryegrass; PREEMERGENCE, Rate 4 g/ha): 0
Ryegrass plant response rating (ryegrass; PREEMERGENCE, Rate 8 g/ha): 0
Ryegrass plant response rating (ryegrass; PREEMERGENCE, Rate 16 g/ha): 0
Ryegrass plant response rating (ryegrass; PREEMERGENCE, Rate 32 g/ha): 20
Ryegrass plant response rating (ryegrass; PREEMERGENCE, Rate 64 g/ha): 40
Ryegrass plant response rating (ryegrass; PREEMERGENCE, Rate 125 g/ha): 60
Ryegrass plant response rating (ryegrass; PREEMERGENCE, Rate 250 g/ha): 80
Wheat (Winter) plant response rating (winter wheat; POSTEMERGENCE, Rate 4 g/ha): 0
Wheat (Winter) plant response rating (winter wheat; POSTEMERGENCE, Rate 8 g/ha): 0
Wheat (Winter) plant response rating (winter wheat; POSTEMERGENCE, Rate 16 g/ha): 0
Wheat (Winter) plant response rating (winter wheat; POSTEMERGENCE, Rate 32 g/ha): 15
Wheat (Winter) plant response rating (winter wheat; POSTEMERGENCE, Rate 64 g/ha): 20
Wheat (Winter) plant response rating (winter wheat; POSTEMERGENCE, Rate 125 g/ha): 30
Wheat (Winter) plant response rating (winter wheat; POSTEMERGENCE, Rate 250 g/ha): 20
Wheat (Winter) plant response rating (winter wheat; PREEMERGENCE, Rate 4 g/ha): 0
Wheat (Winter) plant response rating (winter wheat; PREEMERGENCE, Rate 8 g/ha): 0
Wheat (Winter) plant response rating (winter wheat; PREEMERGENCE, Rate 16 g/ha): 0
Wheat (Winter) plant response rating (winter wheat; PREEMERGENCE, Rate 32 g/ha): 0
Wheat (Winter) plant response rating (winter wheat; PREEMERGENCE, Rate 64 g/ha): 0
Wheat (Winter) plant response rating (winter wheat; PREEMERGENCE, Rate 125 g/ha): 10
Wheat (Winter) plant response rating (winter wheat; PREEMERGENCE, Rate 250 g/ha): 20
Persn Speedwell plant response rating (speedwell; POSTEMERGENCE, Rate 4 g/ha): 60
Persn Speedwell plant response rating (speedwell; POSTEMERGENCE, Rate 8 g/ha): 60
Persn Speedwell plant response rating (speedwell; POSTEMERGENCE, Rate 32 g/ha): 100
Persn Speedwell plant response rating (speedwell; POSTEMERGENCE, Rate 64 g/ha): 100
Persn Speedwell plant response rating (speedwell; POSTEMERGENCE, Rate 125 g/ha): 100
Persn Speedwell plant response rating (speedwell; POSTEMERGENCE, Rate 250 g/ha): 100
Persn Speedwell plant response rating (speedwell; PREEMERGENCE, Rate 4 g/ha): 50
Persn Speedwell plant response rating (speedwell; PREEMERGENCE, Rate 8 g/ha): 80
Persn Speedwell plant response rating (speedwell; PREEMERGENCE, Rate 16 g/ha): 100
Persn Speedwell plant response rating (speedwell; PREEMERGENCE, Rate 32 g/ha): 100
Persn Speedwell plant response rating (speedwell; PREEMERGENCE, Rate 64 g/ha): 100
Persn Speedwell plant response rating (speedwell; PREEMERGENCE, Rate 125 g/ha): 100
Persn Speedwell plant response rating (speedwell; PREEMERGENCE, Rate 250 g/ha): 100
Galium (1) plant response rating (galium; POSTEMERGENCE, Rate 4 g/ha, stage (1) two to three leaves): 0
Galium (2) plant response rating (galium; POSTEMERGENCE, Rate 4 g/ha, stage (2) approximately four leaves or initial tillering): 50
Galium (1) plant response rating (galium; POSTEMERGENCE, Rate 8 g/ha, stage (1) two to three leaves): 0
Galium (2) plant response rating (galium; POSTEMERGENCE, Rate 8 g/ha, stage (2) approximately four leaves or initial tillering): 50
Galium (1) plant response rating (galium; POSTEMERGENCE, Rate 16 g/ha, stage (1) two to three leaves): 30
Galium (2) plant response rating (galium; POSTEMERGENCE, Rate 16 g/ha, stage (2) approximately four leaves or initial tillering): 100
Galium (1) plant response rating (galium; POSTEMERGENCE, Rate 32 g/ha, stage (1) two to three leaves): 50
Galium (2) plant response rating (galium; POSTEMERGENCE, Rate 32 g/ha, stage (2) approximately four leaves or initial tillering): 60
Galium (1) plant response rating (galium; POSTEMERGENCE, Rate 64 g/ha, stage (1) two to three leaves): 100
Galium (2) plant response rating (galium; POSTEMERGENCE, Rate 64 g/ha, stage (2) approximately four leaves or initial tillering): 100
Galium (1) plant response rating (galium; POSTEMERGENCE, Rate 125 g/ha, stage (1) two to three leaves): 100
Galium (2) plant response rating (galium; POSTEMERGENCE, Rate 125 g/ha, stage (2) approximately four leaves or initial tillering): 100
Galium (1) plant response rating (galium; POSTEMERGENCE, Rate 250 g/ha, stage (1) two to three leaves): 100
Galium (2) plant response rating (galium; POSTEMERGENCE, Rate 250 g/ha, stage (2) approximately four leaves or initial tillering): 100
Galium (1) plant response rating (galium; PREEMERGENCE, Rate 4 g/ha, Galium (1)): 0
Galium (2) plant response rating (galium; PREEMERGENCE, Rate 4 g/ha, Galium (2)): 0
Galium (1) plant response rating (galium; PREEMERGENCE, Rate 8 g/ha, Galium (1)): 0
Galium (2) plant response rating (galium; PREEMERGENCE, Rate 8 g/ha, Galium (2)): 20
Galium (1) plant response rating (galium; PREEMERGENCE, Rate 16 g/ha, Galium (1)): 0
Galium (2) plant response rating (galium; PREEMERGENCE, Rate 16 g/ha, Galium (2)): 40
Galium (1) plant response rating (galium; PREEMERGENCE, Rate 32 g/ha, Galium (1)): 100
Galium (2) plant response rating (galium; PREEMERGENCE, Rate 32 g/ha, Galium (2)): 100
Galium (1) plant response rating (galium; PREEMERGENCE, Rate 64 g/ha, Galium (1)): 100
Galium (2) plant response rating (galium; PREEMERGENCE, Rate 64 g/ha, Galium (2)): 100
Galium (1) plant response rating (galium; PREEMERGENCE, Rate 125 g/ha, Galium (1)): 100
Galium (2) plant response rating (galium; PREEMERGENCE, Rate 125 g/ha, Galium (2)): 100
Galium (1) plant response rating (galium; PREEMERGENCE, Rate 250 g/ha, Galium (1)): 100
Galium (2) plant response rating (galium; PREEMERGENCE, Rate 250 g/ha, Galium (2)): 100
Green foxtail plant response rating (green foxtail; POSTEMERGENCE, Rate 4 g/ha): 0
Green foxtail plant response rating (green foxtail; POSTEMERGENCE, Rate 8 g/ha): 0
Green foxtail plant response rating (green foxtail; POSTEMERGENCE, Rate 16 g/ha): 50
Green foxtail plant response rating (green foxtail; POSTEMERGENCE, Rate 32 g/ha): 60
Green foxtail plant response rating (green foxtail; POSTEMERGENCE, Rate 64 g/ha): 70
Green foxtail plant response rating (green foxtail; POSTEMERGENCE, Rate 125 g/ha): 80
Green foxtail plant response rating (green foxtail; POSTEMERGENCE, Rate 250 g/ha): 50
Green foxtail plant response rating (green foxtail; PREEMERGENCE, Rate 4 g/ha): 0
Green foxtail plant response rating (green foxtail; PREEMERGENCE, Rate 8 g/ha): 0
Green foxtail plant response rating (green foxtail; PREEMERGENCE, Rate 16 g/ha): 20
Green foxtail plant response rating (green foxtail; PREEMERGENCE, Rate 32 g/ha): 50
Green foxtail plant response rating (green foxtail; PREEMERGENCE, Rate 64 g/ha): 100
Green foxtail plant response rating (green foxtail; PREEMERGENCE, Rate 125 g/ha): 100
Green foxtail plant response rating (green foxtail; PREEMERGENCE, Rate 250 g/ha): 100
Blackgrass (1) plant response rating (blackgrass; Rate 4 g/ha): 0
Blackgrass (2) plant response rating (blackgrass; Rate 4 g/ha): 0
Blackgrass (1) plant response rating (blackgrass; Rate 8 g/ha): 0
Blackgrass (2) plant response rating (blackgrass; Rate 8 g/ha): 0
Blackgrass (1) plant response rating (blackgrass; Rate 16 g/ha): 0
Blackgrass (2) plant response rating (blackgrass; Rate 16 g/ha): 0
